Source: patent US20140303109A1 (priority 2010, published 2014)

Tests used:
[1] = test system: PGE2; assay: PGE2 immunoassay, three PC lines; assay type: cell-based, human; settings: 24 h serum-free; CDF or CUR 1-4 μMol/L, GEM 10 nMol/L
[2] = test system: miR-200b and miR-200c; assay: Real-time RT-PCR of miR-200b and miR-200c in PC cell lines; assay type: cell-based, human; settings: 72 h; BxPC-3, MIAPaCa-E, MIAPaCaM
Experimental: The expression of miRNAs (miRNA-200a, miR-200b, and miR-21) in all three pancreatic cancer cell lines, was measured with a TaqMan MicroRNA Assay kit (Applied Biosystems, Carlsbad, Calif.) following the manufacturer's protocol. […] Real-time RT-PCR reactions were then carried out in a total volume of 25 μl reaction mixture, as described by Li, et al., id., using Smart Cycler II (Cepheid, Sunnyvale, Calif.). The data were analyzed using Ct method and were normalized by RNU6B expression in each sample.

[3] = test system: NF-κB DNA binding activity; assay: EMSA for NF-κB DNA binding activity, three PC lines; assay type: cell-based, human; settings: 72 h; CDF/CUR 1 or 4 μMol/L, GEM 10 nMol/L
Experimental: The DNA binding activity of the nuclear transcription factor, NF-κB was assessed in the BxPC-3, MIAPaCa-E, and MIAPaCa-M cell lines by EMSA. […] The cells were lysed in 400 μl of lysis buffer and the reaction was set up as described earlier in Ali, et al., id. The gel was scanned using an Odyssey Infrared Imaging System, (LI-COR, Inc., Lincoln, Nebr.). Equal protein loading was ensured by immunoblotting 10 μg of nuclear protein and probing with anti-retinoblastoma antibody.

[4] = test system: NF-κB DNA binding activity; assay: EMSA for NF-κB DNA binding activity in tumor tissue; assay type: in vivo, mice; settings: MIA PaCa-2 tumors
Experimental: Nuclear extracts were prepared from tumor tissue induced by the MIA PaCa-2 cells using an homogenizer with 400 μl of ice cold lysis buffer extracted as described earlier. EMSA was performed using the Odyssey Infrared Imaging System with NF-κβ 1RDye labeled oligonucleotide from LI-COR, Inc. (Lincoln, Nebr.). An NF-Kβ competition control study was conducted using unlabeled NF-Kβ consensus oligonucleotide. The samples were loaded and run at 30 mA for 1 hour. The gel was scanned using Odyssey Infrared Imaging System (LI-COR, Inc.).

Structure (SMILES): Nc1ccn([C@@H]2O[C@H](CO)[C@@H](O)C2(F)F)c(=O)n1 [GEM, gemcitabine]
- PGE2 secretion level [1]: substantial increase in the level of PGE2 secretion
- expression of miR-200b and miR-200c [2]: increased expression of miR-200b and miR-200c
- NF-κβ DNA binding activity [3]: activation of NF-κβ in all three cell lines
- NF-κβ activation in tumor tissue [4]: activated NF-κβ levels
